Measured values from patent publication US12427159B2, “Hydroxypyrrolidine-substituted arylsulfonamide compounds with selective activity in voltage-gated sodium channels” (Merck Sharp & Dohme LLC, priority 2019, dated 2025).
pIC50: −log10 of the molar value. Several values for one entry are separate records, joined by “and”; a condition that tells them apart may be missing. Identical values can stand only once.

Key:
human Nav1.7 channels = biological target: T1, human Nav1.7 channels (Homo sapiens, UniProt Q15858); experiment: IonWorks Quattro automated patch-clamp, inactivated state block of Nav1.7; format: cell-based; settings: human Nav1.7 stably expressed in HEK 293 cells, double-pulse protocol, read-out: potency for the Nav 1.7 sodium ion channel (as measured by IonWorks)
T1 construct: expressed in transfected cells; host or cells: HEK 293
Experimental: (§1) IonWorks® Experimental Procedure
(§2) Compounds were tested on human Nav1.7 and Nav1.5 channels stably expressed in HEK 293 cells. Sodium current measurements on IonWorks Quattro: An automated patch-clamp assay on the IonWorks Quattro platform (Molecular Devices) was used to measure state-dependent inhibition of human Nav1.7 and 1.5 channels. Cells were sealed on a planar substrate using the Population Patch […] (PPC) technology. Electrical access was obtained using both nystatin and amphotericin. A double-pulse protocol was used for the determination of IC50 values for inactivated state block. Nav1.7 and Nav1.5 expressing cells were voltage clamped at −100 mV and −110 mV, respectively. A depolarizing prepulse to −10 mV (Nav1.7) or −30 mV (Nav1.5) for 1000 ms followed by a 10 ms repolarization to −100 mV (Nav1.7) or −110 mV (Nav1.5) was given to generate fractional channel inactivation of ˜ 50%, followed by a 10 ms test pulse to −10 mV (Nav1.7) or −30 mV (Nav1.5) to measure peak current in control conditions and after compound addition. The following recording solutions were used (mM). External: 150 NaCl, 2 CaCl2), 5 KCl, 1 Mg Cl2, 10 HEPES, 12 Dextrose; internal: 120 CsF, 30 CsCl, 10 EGTA, 5 HEPES, 5 NaF, 2 MgCl2.
(§3) For all electrophysiology experiments, offline analysis was used to determine percent inhibition as a function of drug concentration. IC50 values were determined by fitting to the Hill equation.
(§4) The various compounds in Examples 1 through 4 and Tables 1 through 3 exemplified above were assayed for activity and selectivity using the foregoing IonWorks® technique. The results are reported in the following paragraph in a format expressing the identification of the compound with reference Example and compound (e.g. Ex 1-9 is Example 1, compound 9) followed by the observed potency in nM and the ratio of Nav1.7 potency:Nav 1.5 potency as described here. […]

human Nav1.5 channels = biological target: T2, human Nav1.5 channels (Homo sapiens, UniProt Q14524); experiment: IonWorks Quattro automated patch-clamp, Nav1.5 (selectivity versus Nav1.7); format: cell-based; settings: selectivity Nav1.7 over Nav1.5, both by IonWorks in HEK 293 cells
T2 construct: expressed in transfected cells; host or cells: HEK 293
Experimental: as §1, §2, §3, §4

T2 sequence (Q14524 whole entry): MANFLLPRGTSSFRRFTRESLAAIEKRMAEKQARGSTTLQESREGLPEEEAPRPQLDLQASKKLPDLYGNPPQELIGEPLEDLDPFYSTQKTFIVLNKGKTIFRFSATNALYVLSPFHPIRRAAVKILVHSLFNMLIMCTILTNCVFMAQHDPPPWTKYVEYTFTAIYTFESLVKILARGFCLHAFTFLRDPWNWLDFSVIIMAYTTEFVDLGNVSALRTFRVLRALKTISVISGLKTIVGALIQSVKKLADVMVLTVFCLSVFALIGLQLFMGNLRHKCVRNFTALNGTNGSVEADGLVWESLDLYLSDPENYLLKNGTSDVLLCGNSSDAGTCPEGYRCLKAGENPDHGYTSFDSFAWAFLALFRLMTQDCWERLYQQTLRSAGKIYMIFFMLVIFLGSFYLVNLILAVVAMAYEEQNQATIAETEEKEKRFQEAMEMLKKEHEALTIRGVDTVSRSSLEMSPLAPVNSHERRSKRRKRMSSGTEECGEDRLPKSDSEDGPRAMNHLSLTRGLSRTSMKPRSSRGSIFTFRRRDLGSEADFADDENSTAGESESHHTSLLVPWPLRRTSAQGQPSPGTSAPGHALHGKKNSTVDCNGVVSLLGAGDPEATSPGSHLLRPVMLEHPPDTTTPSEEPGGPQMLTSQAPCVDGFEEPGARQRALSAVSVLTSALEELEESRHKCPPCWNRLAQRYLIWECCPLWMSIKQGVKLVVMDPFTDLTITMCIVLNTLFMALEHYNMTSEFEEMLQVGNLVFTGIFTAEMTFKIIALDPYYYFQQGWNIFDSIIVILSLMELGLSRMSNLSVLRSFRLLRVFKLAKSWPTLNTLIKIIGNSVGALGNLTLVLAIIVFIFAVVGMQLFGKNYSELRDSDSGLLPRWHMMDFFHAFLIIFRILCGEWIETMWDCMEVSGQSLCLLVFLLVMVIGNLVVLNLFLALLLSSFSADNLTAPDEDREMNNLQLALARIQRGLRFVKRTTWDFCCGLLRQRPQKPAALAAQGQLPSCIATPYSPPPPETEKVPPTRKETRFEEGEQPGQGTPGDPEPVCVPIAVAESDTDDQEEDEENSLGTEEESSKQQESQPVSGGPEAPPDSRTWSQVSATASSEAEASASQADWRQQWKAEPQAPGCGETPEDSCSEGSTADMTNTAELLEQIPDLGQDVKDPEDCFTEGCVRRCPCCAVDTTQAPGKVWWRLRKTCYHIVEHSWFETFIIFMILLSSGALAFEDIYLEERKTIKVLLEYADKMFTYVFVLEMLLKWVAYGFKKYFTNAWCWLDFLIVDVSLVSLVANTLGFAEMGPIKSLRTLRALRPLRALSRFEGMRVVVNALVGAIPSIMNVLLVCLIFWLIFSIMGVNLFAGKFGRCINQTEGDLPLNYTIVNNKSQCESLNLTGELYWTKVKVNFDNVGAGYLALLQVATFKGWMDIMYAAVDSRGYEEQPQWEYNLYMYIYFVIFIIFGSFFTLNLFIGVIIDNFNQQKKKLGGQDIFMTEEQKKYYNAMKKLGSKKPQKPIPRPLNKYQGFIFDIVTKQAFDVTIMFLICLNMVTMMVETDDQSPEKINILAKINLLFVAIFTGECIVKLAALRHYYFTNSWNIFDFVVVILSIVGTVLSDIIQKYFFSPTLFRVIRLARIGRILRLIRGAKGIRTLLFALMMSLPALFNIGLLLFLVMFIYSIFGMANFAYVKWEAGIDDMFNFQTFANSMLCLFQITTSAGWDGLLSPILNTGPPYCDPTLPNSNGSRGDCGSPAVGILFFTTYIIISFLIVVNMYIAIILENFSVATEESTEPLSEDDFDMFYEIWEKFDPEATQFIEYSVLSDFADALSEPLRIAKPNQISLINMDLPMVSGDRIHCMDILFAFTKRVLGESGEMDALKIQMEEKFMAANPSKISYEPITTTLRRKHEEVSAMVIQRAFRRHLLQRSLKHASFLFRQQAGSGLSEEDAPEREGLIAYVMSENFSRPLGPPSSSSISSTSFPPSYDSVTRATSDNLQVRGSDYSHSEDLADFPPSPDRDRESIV
T1 sequence (Q15858 whole entry): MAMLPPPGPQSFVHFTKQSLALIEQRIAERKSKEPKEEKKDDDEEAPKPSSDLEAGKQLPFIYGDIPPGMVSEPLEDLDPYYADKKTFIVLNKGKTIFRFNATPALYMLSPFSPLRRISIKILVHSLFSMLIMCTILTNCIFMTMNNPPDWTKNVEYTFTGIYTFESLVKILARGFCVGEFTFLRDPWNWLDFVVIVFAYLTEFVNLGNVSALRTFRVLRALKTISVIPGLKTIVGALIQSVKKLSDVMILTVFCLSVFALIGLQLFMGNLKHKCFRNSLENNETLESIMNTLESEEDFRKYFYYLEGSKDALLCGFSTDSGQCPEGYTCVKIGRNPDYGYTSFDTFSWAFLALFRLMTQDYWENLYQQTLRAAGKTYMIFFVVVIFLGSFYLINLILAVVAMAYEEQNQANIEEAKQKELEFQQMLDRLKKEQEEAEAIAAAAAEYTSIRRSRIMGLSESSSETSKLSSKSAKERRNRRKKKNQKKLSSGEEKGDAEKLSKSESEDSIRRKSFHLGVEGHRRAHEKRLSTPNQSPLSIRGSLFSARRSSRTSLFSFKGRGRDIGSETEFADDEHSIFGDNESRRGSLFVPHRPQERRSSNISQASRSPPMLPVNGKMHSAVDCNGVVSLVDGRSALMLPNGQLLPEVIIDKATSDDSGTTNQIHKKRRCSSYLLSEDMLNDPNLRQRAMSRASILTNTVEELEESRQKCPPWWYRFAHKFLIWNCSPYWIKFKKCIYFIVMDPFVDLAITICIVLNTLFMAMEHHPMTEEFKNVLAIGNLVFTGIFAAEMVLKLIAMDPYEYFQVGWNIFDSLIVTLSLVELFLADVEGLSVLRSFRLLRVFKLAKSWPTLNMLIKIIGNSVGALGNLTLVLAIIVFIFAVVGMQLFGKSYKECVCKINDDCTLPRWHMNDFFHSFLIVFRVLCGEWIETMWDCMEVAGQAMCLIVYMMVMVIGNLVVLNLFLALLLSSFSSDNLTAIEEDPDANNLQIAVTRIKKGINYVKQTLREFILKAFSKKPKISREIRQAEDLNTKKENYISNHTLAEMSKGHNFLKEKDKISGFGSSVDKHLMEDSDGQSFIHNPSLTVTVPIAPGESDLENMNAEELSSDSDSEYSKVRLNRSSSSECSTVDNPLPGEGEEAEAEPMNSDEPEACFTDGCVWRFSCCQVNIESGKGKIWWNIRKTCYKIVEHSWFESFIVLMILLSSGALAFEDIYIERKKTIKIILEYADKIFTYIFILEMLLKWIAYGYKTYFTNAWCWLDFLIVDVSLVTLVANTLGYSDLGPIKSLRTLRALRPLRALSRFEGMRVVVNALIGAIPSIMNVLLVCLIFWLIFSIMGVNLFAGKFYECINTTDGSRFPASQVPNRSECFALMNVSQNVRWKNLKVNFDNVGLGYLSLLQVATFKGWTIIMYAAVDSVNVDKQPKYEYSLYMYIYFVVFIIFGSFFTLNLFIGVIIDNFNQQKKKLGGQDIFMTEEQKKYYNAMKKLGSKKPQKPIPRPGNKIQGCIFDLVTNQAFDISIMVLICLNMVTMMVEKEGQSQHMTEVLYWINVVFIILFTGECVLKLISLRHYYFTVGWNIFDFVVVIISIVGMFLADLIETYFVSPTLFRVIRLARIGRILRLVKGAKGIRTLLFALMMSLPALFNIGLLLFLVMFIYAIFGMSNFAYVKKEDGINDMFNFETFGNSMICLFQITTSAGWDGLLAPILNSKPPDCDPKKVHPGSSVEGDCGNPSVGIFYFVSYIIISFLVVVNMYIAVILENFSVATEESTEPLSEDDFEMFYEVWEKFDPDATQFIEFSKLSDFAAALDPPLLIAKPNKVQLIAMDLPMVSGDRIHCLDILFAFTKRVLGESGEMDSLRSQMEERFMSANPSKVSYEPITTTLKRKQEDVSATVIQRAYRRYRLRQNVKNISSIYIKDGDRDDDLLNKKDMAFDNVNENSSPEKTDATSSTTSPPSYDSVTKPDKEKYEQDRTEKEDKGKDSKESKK

## O=S(=O)(Nc1nccs1)c1cc(Cl)c(NC[C@]2(Cc3ccccc3)C[C@H](O)CN2)cc1F [Ex1-9, 4-((((2S,4S)-2-Benzyl-4-Hydroxypyrrolidin-2-Yl)Methyl)Amino)-5-Chloro-2-Fluoro-N-(Thiazol-2-Yl)Benzenesulfonamide]
Human Nav1.7 channels
  pIC50: 8.10
Human Nav1.5 channels
  ratio of Nav1.7 potency:Nav 1.5 potency: 3976 and > 3976

## O=S(=O)(Nc1nccs1)c1cc(Cl)c(NC[C@]2(CC3CCC3)C[C@H](O)CN2)cc1F [Ex1-15, 5-Chloro-4-((((2S,4S)-2-(Cyclobutylmethyl)-4-Hydroxypyrrolidin-2 Yl)Methyl)Amino)-2-Fluoro-N-(Thiazol-2-Yl)Benzenesulfonamide]
Human Nav1.7 channels
  pIC50: 8.40
Human Nav1.5 channels
  ratio of Nav1.7 potency:Nav 1.5 potency: > 7500

## O=S(=O)(Nc1nccs1)c1cc(Cl)c(NC[C@]2(Cc3ccc(Br)cc3)C[C@H](O)CN2)cc1F [Ex1-22, 4-((((2S,4S)-2-(4-Bromobenzyl)-4-Hydroxypyrrolidin-2-Yl)Methyl)Amino)-5-Chloro-2-Fluoro-N-(Thiazol-2-Yl)Benzenesulfonamide]
Human Nav1.7 channels
  pIC50: 8.40
Human Nav1.5 channels
  ratio of Nav1.7 potency:Nav 1.5 potency: 84

## O=S(=O)(Nc1nccs1)c1cc(Cl)c(NC[C@]2(CCc3ccccc3)C[C@H](O)CN2)cc1F [Ex1-28, 5-Chloro-2-Fluoro-4-((((2S,4S)-4-Hydroxy-2-Phenethylpyrrolidin-2-Yl)Methyl)-Amino)-N-(Thiazol-2-Yl)Benzenesulfonamide]
Human Nav1.7 channels
  pIC50: 8.52
Human Nav1.5 channels
  ratio of Nav1.7 potency:Nav 1.5 potency: 11000

## O=S(=O)(Nc1nccs1)c1cc(Cl)c(NC[C@]2(CCCc3ccccc3)C[C@H](O)CN2)cc1F [Ex1-29, 5-chloro-2-fluoro-4-((((2S,4S)-4-hydroxy-2-(3-phenylpropyl)-pyrrolidin-2-yl)methyl)amino)-N-(thiazol-2-yl)-benzene-sulfonamide]
Human Nav1.7 channels
  pIC50: 8.70
Human Nav1.5 channels
  ratio of Nav1.7 potency:Nav 1.5 potency: 10500

## O=S(=O)(Nc1nccs1)c1cc(Cl)c(NC[C@]2(Cc3cccc(Br)c3)C[C@H](O)CN2)cc1F [Ex1-30, 4-((((2S,4S)-2-(3-bromobenzyl)-4-hydroxypyrrolidin-2-yl)methyl)amino)-5-chloro-2-fluoro-N-(thiazol-2-yl) benzenesulfonamide]
Human Nav1.7 channels
  pIC50: 8.15
Human Nav1.5 channels
  ratio of Nav1.7 potency:Nav 1.5 potency: 1220

## COc1cccc(C[C@@]2(CNc3cc(F)c(S(=O)(=O)Nc4nccs4)cc3Cl)C[C@H](O)CN2)c1 [Ex1-31, 5-chloro-2-fluoro-4-((((2S,4S)-4-hydroxy-2-(3-methoxybenzyl)pyrrolidin-2-yl)methyl)amino)-N-(thiazol-2-yl) benzenesulfonamide]
Human Nav1.7 channels
  pIC50: 8.15
Human Nav1.5 channels
  ratio of Nav1.7 potency:Nav 1.5 potency: 4714

## Cc1cccc(C[C@@]2(CNc3cc(F)c(S(=O)(=O)Nc4nccs4)cc3Cl)C[C@H](O)CN2)c1 [Ex1-32]
Human Nav1.7 channels
  pIC50: 8.70
Human Nav1.5 channels
  ratio of Nav1.7 potency:Nav 1.5 potency: 16500

## O=S(=O)(Nc1nccs1)c1cc(Cl)c(NC[C@]2(Cc3cccc(F)c3)C[C@H](O)CN2)cc1F [Ex1-33, 5-chloro-2-fluoro-4-((((2S,4S)-2-(3-fluorobenzyl)-4-hydroxypyrrolidin-2-yl)methyl)amino)-N-(thiazol-2-yl) benzenesulfonamide]
Human Nav1.7 channels
  pIC50: 8.15
Human Nav1.5 channels
  ratio of Nav1.7 potency:Nav 1.5 potency: 1714

## CC(C)(C)CC[C@@]1(CNc2cc(F)c(S(=O)(=O)Nc3nccs3)cc2Cl)C[C@H](O)CN1 [Ex1-34, 5-chloro-4-((((2S,4S)-2-(3,3-dimethylbutyl)-4-hydroxypyrrolidin-2-yl)methyl)amino)-2-fluoro-N-(thiazol-2-yl) benzenesulfonamide]
Human Nav1.7 channels
  pIC50: 8.40
Human Nav1.5 channels
  ratio of Nav1.7 potency:Nav 1.5 potency: 6750

## N#Cc1ccc(C[C@@]2(CNc3cc(F)c(S(=O)(=O)Nc4nccs4)cc3Cl)C[C@H](O)CN2)cc1 [Ex2-2, 5-Chloro-4-((((2S,4S)-2-(4-Cyanobenzyl)-4-Hydroxypyrrolidin-2-Yl)Methyl)Amino)-2-Fluoro-N-(Thiazol-2-Yl)Benzenesulfonamide]
Human Nav1.7 channels
  pIC50: 8.40
Human Nav1.5 channels
  ratio of Nav1.7 potency:Nav 1.5 potency: 3000

## NCc1ccc(C[C@@]2(CNc3cc(F)c(S(=O)(=O)Nc4nccs4)cc3Cl)C[C@H](O)CN2)cc1 [Ex2-3, 4-((((2S,4S)-2-(4-(Aminomethyl) Benzyl)-4-Hydroxypyrrolidin-2-Yl) Methyl)Amino)-5-Chloro-2-Fluoro-N-(Thiazol-2-Yl)Benzenesulfonamide]
Human Nav1.7 channels
  pIC50: 7.42
Human Nav1.5 channels
  ratio of Nav1.7 potency:Nav 1.5 potency: 868

## N#Cc1cccc(C[C@@]2(CNc3cc(F)c(S(=O)(=O)Nc4nccs4)cc3Cl)C[C@H](O)CN2)c1 [Ex2-4, 5-chloro-4-((((2S,4S)-2-(3-cyanobenzyl)-4-hydroxypyrrolidin-2-yl)methyl)amino)-2-fluoro-N-(thiazol-2-yl)benzenesulfonamide]
Human Nav1.7 channels
  pIC50: 7.96
Human Nav1.5 channels
  ratio of Nav1.7 potency:Nav 1.5 potency: 2909

## NCc1cccc(C[C@@]2(CNc3cc(F)c(S(=O)(=O)Nc4nccs4)cc3Cl)C[C@H](O)CN2)c1 [Ex2-5, 4-((((2S,4S)-2-(3-(aminomethyl)benzyl)-4-hydroxypyrrolidin-2-yl)methyl)amino)-5-chloro-2-fluoro-N-(thiazol-2-yl)benzenesulfonamide]
Human Nav1.7 channels
  pIC50: 8.40
Human Nav1.5 channels
  ratio of Nav1.7 potency:Nav 1.5 potency: 6250

## O=S(=O)(Nc1nccs1)c1cc(Cl)c(NC[C@]2(Cc3ccc(-c4ccccn4)cc3)C[C@H](O)CN2)cc1F [Ex3-2, 5-Chloro-2-Fluoro-4-((((2S,4S)-4-Hydroxy-2-(4-(Pyridin-2-Yl)Benzyl)Pyrrolidin-2-Yl)Methyl)Amino)-N-(Thiazol-2-Yl)Benzenesulfonamide]
Human Nav1.7 channels
  pIC50: 8.15
Human Nav1.5 channels
  ratio of Nav1.7 potency:Nav 1.5 potency: 543

## O=S(=O)(Nc1nccs1)c1cc(Cl)c(NC[C@]2(Cc3ccc(-c4ncco4)cc3)C[C@H](O)CN2)cc1F [Ex3-3, 5-chloro-2-fluoro-4-((((2S,4S)-4-hydroxy-2-(4-(oxazol-2-yl)benzyl)pyrrolidin-2-yl)methyl)amino)-N-(thiazol-2-yl)benzenesulfonamide]
Human Nav1.7 channels
  pIC50: 8.05
Human Nav1.5 channels
  ratio of Nav1.7 potency:Nav 1.5 potency: 933

## O=S(=O)(Nc1nccs1)c1cc(Cl)c(NC[C@]2(Cc3ccc(-c4ccn[nH]4)cc3)C[C@H](O)CN2)cc1F [Ex4-2, 4-((((2S,4S)-2-(4-(1H-Pyrazol-5-Yl)Benzyl)-4-Hydroxypyrrolidin-2-Yl) Methyl)Amino)-5-Chloro-2-Fluoro-N-(Thiazol-2-Yl)Benzenesulfonamide]
Human Nav1.7 channels
  pIC50: 7.74
Human Nav1.5 channels
  ratio of Nav1.7 potency:Nav 1.5 potency: 367
